Reference: ChEMBL document CHEMBL1136417, “Siphonols A-E: novel nitric oxide inhibitors from Orthosiphon stamineus of Indonesia” (Bioorg Med Chem Lett, 2003)

These compounds were tested on J774 (assay: Inhibitory activity against nitric oxide production in lipopolysaccharide (LPS)-activated macrophage -like J774.1 cell). Conditions: Mus musculus, J774.
Type: functional, cell-based, Mus musculus

Compound	IC50
C=C[C@@]1(C)C[C@@H](OC(=O)c2ccccc2)C2[C@]3(CO)C(C[C@@H](OC(C)=O)[C@@]2(O)C1=O)C(C)(C)[C@H](OC(C)=O)[C@H](O)[C@@H]3OC(=O)c1ccccc1 (stereo partly drawn)	22.9 µM
CNC(=N)NCCC[C@H](N)C(=O)O [TILARGININE]	26 µM
CC(=O)O[C@H]1[C@@H](OC(C)=O)C(C)(C)C2C[C@@H](OC(C)=O)[C@@]3(O)C(=O)[C@@](C)(C=O)C[C@@H](OC(=O)c4ccccc4)C3[C@@]2(CO)[C@H]1OC(=O)c1ccccc1 (stereo partly drawn)	23 µM
C=C[C@@]1(C)C[C@@H](OC(=O)c2ccccc2)C2[C@]3(CO)C(C[C@@H](O)[C@@]2(O)C1=O)C(C)(C)[C@H](OC(C)=O)[C@H](OC(C)=O)[C@@H]3OC(=O)c1ccccc1 (stereo partly drawn)	17.3 µM
C[C@@H]1C[C@H]2[C@@H]3CCC4=CC(=O)C=C[C@]4(C)[C@@]3(F)[C@@H](O)C[C@]2(C)[C@@]1(O)C(=O)CO [DEXAMETHASONE]	170 µM
C=C[C@@]1(C)C[C@@H](OC(=O)c2ccccc2)C2[C@]3(CO)C(C[C@@H](OC(C)=O)[C@@]2(O)C1=O)C(C)(C)[C@H](OC(C)=O)[C@H](OC(C)=O)[C@@H]3OC(=O)c1ccccc1 (stereo partly drawn)	10.8 µM
C=C[C@@]1(C)C[C@@H](OC(=O)c2ccccc2)C2[C@]3(COC(C)=O)C(C[C@@H](O)[C@@]2(O)C1=O)C(C)(C)[C@H](OC(C)=O)[C@H](OC(C)=O)[C@@H]3OC(=O)c1ccccc1 (stereo partly drawn)	46.5 µM

Same assay, conditions: j774

Compound	IC50
POLYMYXIN B	27.8 µM
